# Measured values as given in PMC7093532, “Iron bioavailability from bouillon fortified with a novel ferric phytate compound: a stable iron isotope study in healthy women (part II)” (Scientific Reports, 2020).
# Read-outs that look alike come from different tables or passages of the source.
# Assays:
# [1] = cited from earlier work
# [2] = dogs, cited from earlier work
# [3] = cited from earlier work; remark: listed apart in the source
# [4] = Stable iron isotope absorption study in healthy adult women (erythrocyte incorporation of oral isotopic labels)
# Text: The human study was a controlled, single blind (to the subjects), single center trial. Healthy adult women (n = 23) consumed 6 different types of investigational products in random order with a cross-over design: bouillon with and without corn porridge fortified either with [^58Fe]-PA-HCP, [^54Fe]-SO4, or [^57Fe]-PP, resulting in 6 different test meal sequences. The sequences built up a Partial Williams Latin square, balanced for first order carry over. The experimental phase lasted for a period of 33 days.
# The human study was conducted between December 2016 and February 2017 at the Laboratory of Human Nutrition of the ETH Zurich. […] The study procedure was explained in detail and written informed consent was obtained. An interview was conducted, weight and height were measured and a venous blood sample was drawn to assess whether participants fulfilled inclusion and exclusion criteria (Hb, Ht, number of erythrocytes, PF). […] The labelled iron-fortified test meals were administered on days 1, 2, 3, 17, 18 and 19 (Fig. 3). Test meals were administered between 07:00 and 09:30 after an overnight fast. The participants consumed the complete test meal and a glass of 300 mL ultrapure water in the presence of the investigators. […] Quantitative consumption of the investigational product was ensured by washing the glass test meal container 2 times with 10 mL of ultrapure water. After consuming the test meals, participants were not allowed to eat or drink for 3 h.
# Venous blood samples were collected after an overnight fast on day 1 (baseline), day 17 and day 33 (endpoint) to determine iron status and iron absorption from the test meals. Iron absorption was determined by quantifying the incorporation of oral stable isotopic labels into erythrocytes. Adverse events and concomitant medication were inquired and documented during the entire study. All experiments were performed in accordance with relevant guidelines and regulations. The study was approved by the ethics Committee of the Canton Zurich, Switzerland (KEK-ZH-Nr. 2016–01472). Participants gave informed written consent before participation in the study and received a symbolic reimbursement at the end of the trial. The study was registered at clinicaltrials.gov as NCT02993835 on December 15, 2016.
# The bouillon meal was prepared from 300 g ultrapure water and 7 g commercial vegetable bouillon powder (Maggi Gemüse Bouillon, Maggi, Singen, Germany) per serving. The bouillon contained iodized salt, dehydrated vegetables (onion, carrot, spinach, celery), yeast extracts, white sugar, potato starch, vegetable extracts (carrot, leek, onion, garlic), sunflower seed oil, natural flavours, spices (curcumin, paprika, nutmeg), chervil, caramelized sugar and natural celery flavour. […] The inhibitory meal was a corn porridge, prepared from 300 g ultrapure water, 7 g commercial vegetable bouillon powder and 50 g whole corn flour per serving (Farina per polenta integrale, Paolo Bassetti, Pianezzo, Switzerland) to achieve an absorption-inhibiting PA:Fe molar ratio of 5.0[31],[40], representative of a moderately inhibitory meal. Whole corn flour has a phytic acid content of about 1–2%, which is higher than in wheat (0.9%) and rice (0.7%)[12],[41]. Test meals were prepared the day before each feeding and stored in individual portions in a refrigerator overnight. On the day of administration, test meals were heated in a microwave oven. The pre-weighed vials containing the labeled iron compounds were added to the test meals and were rinsed 2 times with 2 mL of ultrapure water. […] Bouillon meals further contained 0.1 mg intrinsic iron and the inhibitory meals contained 0.8 mg Fe from the corn flour.
# [5] = PF < 40 µg/L, bouillon + inhibitory meal
# [6] = PF ≥ 40 µg/L, bouillon + inhibitory meal
# Protocol for Caco-2 cells: In parallel to the in vivo human study, in vitro bioaccessibility of the iron compounds was assessed using a Caco-2 cell assay by assessing the amount of ferritin formed in response to the exposure to different digests. Iron fortified bouillon and bouillon with whole corn flour were prepared following the same procedure reported for the human study using [^58Fe]-PA-HCP, [^57Fe]-PP and [^54Fe]-SO4 at the level of 2.1 mg iron/3.3 g of bouillon mass through dry mixing. The resulting fortified bouillon mass was split in five fractions. Three fractions were analysed to assess iron homogeneity in the sample via Inductively Coupled Plasma Optical Emission Spectrometry (ICP-OES) as reported earlier[48] and the remaining two fractions were sent to USDA-ARS Robert Holley Center for Agriculture and Health (Ithaca, NY, USA) to determine in vitro fractional bioaccessibility (IVFBA). […]
# In vitro relative bioaccessibility (IVRBA) of iron from the 2 meals with the 3 iron compounds was calculated based on ferritin formation in the Caco-2 cells: Invitrorelativebioaccessibility(IVRBA)=ngferrittinoffortifiedsample/mgproteinoffortifiedsample/ngferrittinofsamplefortifiedwith[^54Fe]SO4/mgproteinofsamplefortifiedwith[^54Fe]SO4×100
# In the in vitro study, the IVFBAs were also approximately log normally distributed and analysed by robust ANOVA. […]
compound,measurement,setting,value
O=P(O)(O)OC1C(OP(=O)(O)O)C(OP(=O)(O)O)C(OP(=O)(O)O)C(OP(=O)(O)O)C1OP(=O)(O)O.[Fe+3] (stereo not drawn) [monoferric phytate],relative biological value of iron,[1]; rat study,equivalent to common iron fortificants such as ferrous ammonium sulfate
same,bioavailability,[1]; rats,highly bioavailable
same,absorption,[2]; added to meals,equal to the major pool of dietary inorganic iron
same,bioavailability,[2],highly bioavailable
same,iron absorption,[3]; humans,absorbed at least as well as the common pool of non-heme dietary iron
ferrous sulfate [FeSO4],Factor by which FIA is lower in the inhibitory meal compared to bouillon,[4]; in vivo,6.8
same,"In vitro fractional bioaccessibility (IVFBA), geo-mean",Caco-2 cells,9.6%
"O=P([O-])([O-])OP(=O)([O-])[O-].O=P([O-])([O-])OP(=O)([O-])[O-].O=P([O-])([O-])OP(=O)([O-])[O-].[Fe+3].[Fe+3].[Fe+3].[Fe+3] [FePP, Ferric pyrophosphate]","factor (FIA, bouillon vs bouillon + inhibitory meal)",[4]; PF < 40 µg/L,6.7
same,"factor (RBV, bouillon + inhibitory meal vs bouillon)",[4]; PF < 40 µg/L,1.2
same,"FIA, geo-mean","[4]; PF < 40 µg/L, bouillon",1.9%
same,"RBV, geo-mean","[4]; PF < 40 µg/L, bouillon",5.8%
same,"FIA, geo-mean",[4]; [5],0.3%
same,"RBV, geo-mean",[4]; [5],7.1%
same,"factor (FIA, bouillon vs bouillon + inhibitory meal)",[4]; PF ≥ 40 µg/L,6.2
same,"factor (RBV, bouillon + inhibitory meal vs bouillon)",[4]; PF ≥ 40 µg/L,0.9
same,"FIA, geo-mean","[4]; PF ≥ 40 µg/L, bouillon",1.7%
same,"RBV, geo-mean","[4]; PF ≥ 40 µg/L, bouillon",8.8%
same,"FIA, geo-mean",[4]; [6],0.3%
same,"RBV, geo-mean",[4]; [6],8.3%
same,Factor by which FIA is lower in the inhibitory meal compared to bouillon,[4]; all participants,5.9
same,Factor by which RBV is higher in the inhibitory meal compared to bouillon,[4]; all participants,1.2
same,RBV,"[3]; fortified bouillon cubes, mean PF of participants 9.4 µg/L",13%
Diphosphate sodium salt,fractional absorption,"[3]; bouillon, with the diphosphate added (4.4% without)",6.4%
same,relative bioavailability,[3]; in vivo,13–23%
